These results are taken from US20250188092A1, “RIFAMYCIN ANALOGS” (THE REGENTS OF THE UNIVERSITY OF MICHIGAN, priority 2021, published 2025).

One data set has as its system VERO cells (ATCC CRL-81). The data set is described as follows: Vero cell toxicity. Particulars: 72 hours exposure. The format is cell-based. The protocol:
Cytotoxicity for a mammalian cell line was determined by exposing VERO cells (ATCC CRL-81) to serial dilutions of test compounds for 72 hours, followed by addition of resazurin and measurement of fluorescence after 4 hours incubation (Choules, et al., Antimnicrob. Agents Chemother. 2019, 63, e02204-02218).

The target of a further data set is T1, WT MTB RNAP (Mycobacterium tuberculosis, UniProt P9WGY9).
T1 construct: made in house; host or cells: E. coli BL21(DE3)
T1 sequence (P9WGI1 whole entry): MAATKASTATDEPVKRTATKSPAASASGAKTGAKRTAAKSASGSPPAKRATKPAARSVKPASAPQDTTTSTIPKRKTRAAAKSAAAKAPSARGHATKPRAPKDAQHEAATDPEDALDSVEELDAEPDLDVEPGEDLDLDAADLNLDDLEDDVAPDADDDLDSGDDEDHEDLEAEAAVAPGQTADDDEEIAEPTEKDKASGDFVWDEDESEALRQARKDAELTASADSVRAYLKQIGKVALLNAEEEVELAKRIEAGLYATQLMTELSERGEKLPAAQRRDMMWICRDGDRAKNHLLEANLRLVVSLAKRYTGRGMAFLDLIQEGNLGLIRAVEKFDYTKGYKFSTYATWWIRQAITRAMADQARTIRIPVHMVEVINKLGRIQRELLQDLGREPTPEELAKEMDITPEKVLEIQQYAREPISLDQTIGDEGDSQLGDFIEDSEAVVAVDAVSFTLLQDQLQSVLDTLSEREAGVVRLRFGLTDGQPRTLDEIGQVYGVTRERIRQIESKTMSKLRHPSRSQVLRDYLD
T1 sequence (P9WGY7 whole entry, further chain): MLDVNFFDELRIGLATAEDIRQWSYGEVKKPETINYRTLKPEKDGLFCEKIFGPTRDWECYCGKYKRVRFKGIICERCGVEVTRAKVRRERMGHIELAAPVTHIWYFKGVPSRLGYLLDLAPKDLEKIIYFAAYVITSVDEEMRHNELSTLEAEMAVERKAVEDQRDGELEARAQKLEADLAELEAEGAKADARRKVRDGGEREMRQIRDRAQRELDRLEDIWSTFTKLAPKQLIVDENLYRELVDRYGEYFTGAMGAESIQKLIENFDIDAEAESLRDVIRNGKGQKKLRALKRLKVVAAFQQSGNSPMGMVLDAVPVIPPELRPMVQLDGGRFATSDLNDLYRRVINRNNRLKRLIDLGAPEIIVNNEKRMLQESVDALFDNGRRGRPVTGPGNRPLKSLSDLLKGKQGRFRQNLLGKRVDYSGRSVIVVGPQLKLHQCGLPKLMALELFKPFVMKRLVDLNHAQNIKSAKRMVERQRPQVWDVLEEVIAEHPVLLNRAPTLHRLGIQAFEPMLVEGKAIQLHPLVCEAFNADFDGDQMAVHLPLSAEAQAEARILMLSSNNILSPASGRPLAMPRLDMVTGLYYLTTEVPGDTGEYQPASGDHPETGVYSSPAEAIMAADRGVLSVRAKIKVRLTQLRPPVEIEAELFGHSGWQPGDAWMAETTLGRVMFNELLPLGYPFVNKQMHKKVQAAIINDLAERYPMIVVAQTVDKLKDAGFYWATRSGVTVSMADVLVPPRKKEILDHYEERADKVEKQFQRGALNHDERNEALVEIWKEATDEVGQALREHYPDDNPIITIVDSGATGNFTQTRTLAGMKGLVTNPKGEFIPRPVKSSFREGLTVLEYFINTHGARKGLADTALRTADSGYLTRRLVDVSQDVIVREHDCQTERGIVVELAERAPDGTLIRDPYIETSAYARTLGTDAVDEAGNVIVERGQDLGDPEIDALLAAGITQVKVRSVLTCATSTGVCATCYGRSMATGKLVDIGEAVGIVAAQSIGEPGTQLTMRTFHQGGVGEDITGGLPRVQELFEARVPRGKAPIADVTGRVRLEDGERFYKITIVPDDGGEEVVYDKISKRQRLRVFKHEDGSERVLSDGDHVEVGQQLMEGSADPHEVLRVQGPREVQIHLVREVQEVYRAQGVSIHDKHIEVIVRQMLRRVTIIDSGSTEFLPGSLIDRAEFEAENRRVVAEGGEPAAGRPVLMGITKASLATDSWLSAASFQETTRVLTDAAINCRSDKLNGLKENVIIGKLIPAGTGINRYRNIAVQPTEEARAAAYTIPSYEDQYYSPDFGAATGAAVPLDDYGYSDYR
T1 sequence (P9WGY5 whole entry, further chain): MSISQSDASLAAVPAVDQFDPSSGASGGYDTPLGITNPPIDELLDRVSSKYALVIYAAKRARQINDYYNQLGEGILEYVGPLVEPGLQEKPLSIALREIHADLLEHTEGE
T1 sequence (P9WGZ1 whole entry, further chain): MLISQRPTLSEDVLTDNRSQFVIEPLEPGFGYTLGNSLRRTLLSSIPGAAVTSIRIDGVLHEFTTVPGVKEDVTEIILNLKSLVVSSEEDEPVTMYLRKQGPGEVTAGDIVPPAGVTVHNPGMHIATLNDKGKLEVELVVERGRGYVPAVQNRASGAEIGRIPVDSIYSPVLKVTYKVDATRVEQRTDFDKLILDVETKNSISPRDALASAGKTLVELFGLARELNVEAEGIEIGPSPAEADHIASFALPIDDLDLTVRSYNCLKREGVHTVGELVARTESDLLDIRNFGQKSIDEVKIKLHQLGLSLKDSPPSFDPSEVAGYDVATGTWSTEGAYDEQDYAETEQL
T1 sequence (P9WGY9 whole entry): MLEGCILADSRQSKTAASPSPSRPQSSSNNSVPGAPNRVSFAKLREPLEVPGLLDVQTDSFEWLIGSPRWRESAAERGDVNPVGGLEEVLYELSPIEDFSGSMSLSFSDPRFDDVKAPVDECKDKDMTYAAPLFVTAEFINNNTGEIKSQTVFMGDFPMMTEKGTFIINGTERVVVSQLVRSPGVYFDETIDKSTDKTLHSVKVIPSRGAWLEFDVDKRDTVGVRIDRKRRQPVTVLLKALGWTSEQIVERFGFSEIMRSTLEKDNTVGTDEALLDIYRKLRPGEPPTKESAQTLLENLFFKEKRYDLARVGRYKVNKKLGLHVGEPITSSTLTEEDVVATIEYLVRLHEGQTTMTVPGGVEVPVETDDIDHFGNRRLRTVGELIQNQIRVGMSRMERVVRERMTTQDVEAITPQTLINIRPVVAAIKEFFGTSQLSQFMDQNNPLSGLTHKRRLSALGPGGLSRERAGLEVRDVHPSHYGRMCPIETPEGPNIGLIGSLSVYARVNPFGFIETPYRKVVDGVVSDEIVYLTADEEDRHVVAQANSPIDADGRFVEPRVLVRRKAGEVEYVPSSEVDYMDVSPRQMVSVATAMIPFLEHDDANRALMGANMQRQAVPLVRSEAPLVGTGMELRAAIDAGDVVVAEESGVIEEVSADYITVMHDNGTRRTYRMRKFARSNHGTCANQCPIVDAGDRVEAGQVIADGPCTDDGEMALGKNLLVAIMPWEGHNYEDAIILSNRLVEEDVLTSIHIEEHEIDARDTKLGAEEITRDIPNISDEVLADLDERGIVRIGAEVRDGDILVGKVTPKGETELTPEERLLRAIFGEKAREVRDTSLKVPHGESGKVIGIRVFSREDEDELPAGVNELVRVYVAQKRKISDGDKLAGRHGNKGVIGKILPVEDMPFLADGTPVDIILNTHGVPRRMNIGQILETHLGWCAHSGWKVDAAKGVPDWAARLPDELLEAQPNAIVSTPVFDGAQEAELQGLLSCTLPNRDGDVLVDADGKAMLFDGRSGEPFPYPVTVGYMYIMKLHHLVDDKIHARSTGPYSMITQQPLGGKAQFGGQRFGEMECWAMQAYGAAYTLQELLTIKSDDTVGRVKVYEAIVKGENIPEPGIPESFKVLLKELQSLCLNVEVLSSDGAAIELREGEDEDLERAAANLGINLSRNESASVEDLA
The format is biochemical. As to conditions: lower limit of detection ~5 nM.

Data set [1] deals with T2, human pregnane X receptor (hPXR) (Homo sapiens, UniProt O75469).
T2 sequence (O75469 1-434): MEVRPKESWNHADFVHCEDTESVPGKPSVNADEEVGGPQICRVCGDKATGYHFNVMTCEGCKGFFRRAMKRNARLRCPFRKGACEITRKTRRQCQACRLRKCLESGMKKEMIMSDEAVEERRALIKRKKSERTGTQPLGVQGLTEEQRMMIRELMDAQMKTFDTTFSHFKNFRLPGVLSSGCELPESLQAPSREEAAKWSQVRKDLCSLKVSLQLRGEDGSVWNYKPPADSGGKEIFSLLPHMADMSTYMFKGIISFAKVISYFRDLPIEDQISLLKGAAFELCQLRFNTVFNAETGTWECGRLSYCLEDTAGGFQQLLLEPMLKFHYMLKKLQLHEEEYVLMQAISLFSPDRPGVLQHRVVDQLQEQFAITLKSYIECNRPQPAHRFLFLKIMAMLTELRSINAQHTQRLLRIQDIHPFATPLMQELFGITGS

For a further data set, the system named is MTB H37Rv ATCC 27294. The data set is described as follows: MIC, microplate Alamar Blue assay (MABA). The format is cell-based, Mycobacterium tuberculosis. Particulars: for MIC90: MTB H37Rv ATCC 27294, microplate Alamar Blue assay, lowest concentration giving ≥90% reduction in fluorescence. (In general: The colour change of resazurin is a common sign of viable cells or microbes.)

In another data set the test system is CYP 3A4. As to conditions: human, 24 h.
In a further data set the target is hPXR (Homo sapiens, UniProt O75469). As to conditions: cited from earlier work.
A further data set concerns MTB H37Rv. Particulars: cited from earlier work.
The conditions of data set [2]: human trials; cited from earlier work.
For data set [3] the following is noted: mouse, in vivo.
The test system of another data set is M. tuberculosis H37Rv. The data set is described as follows: Minimum bactericidal concentration (MBC, CFU Assay). The format is cell-based, Mycobacterium tuberculosis.
The subject of the next data set is M. tuberculosis Erdman. The data set is described as follows: Mouse acute efficacy study (lung CFU). The format is in vivo, BALB/c mice. As to conditions: 15 mg/kg QD, day 21.

Converted amounts (≈) assume the structure as drawn. Read-outs that look alike come from different tables or passages of the source. Some results are limits rather than exact numbers.

What is called IC50 is the point on the concentration scale where inhibition reaches its midpoint. Low readings indicate greater potency, high ones weaker potency. As a reminder, the MIC90 is the lowest concentration that inhibits either 90% of growth or 90% of the strains tested, depending on the study. Low readings indicate higher susceptibility, high ones lower susceptibility. Broadly, the half-life is the time needed for the level to fall by half in the phase considered.

With `CO[C@H]1/C=C/O[C@@]2(C)Oc3c(C)c(O)c4c(=O)c(c5oc6cc(N7CCC(CC(=O)O)CC7)cc(OCc7ccc(CN8CCOCC8)cc7)c6nc-5c4c3C2=O)NC(=O)/C(C)=C\C=C\[C@H](C)[C@H](O)[C@@H](C)[C@@H](O)[C@@H](C)[C@H](OC(C)=O)[C@@H]1C` [Compound 17l, 2-{1-[(7S,9E,11S,12R,13S,14R,15R,16R,17S,18S,19E,21Z)-13-(acetyloxy)-2,15,17-trihydroxy-11-methoxy-3,7,12,14,16,18,22-heptamethyl-32-{[4-(morpholin-4-ylmethyl)phenyl]methoxy}-6,23,37-trioxo-8,27,38-trioxa-24,34-diazahexacyclo-[23.11.1.1^4,7.0^5,36.0^26,35.0^28,33]octatriaconta-1,3,5(36)9,19,21,25,28,30,32,34-undecaen-30-yl]piperidin-4-yl)acetic acid], the IC50 with VERO cells (ATCC CRL-81) is greater than 10000 nM. On WT MTB RNAP, this molecule came in with a half-maximal inhibitory concentration (IC50) of 13 nM. Further, in [1], the “hPXR Fold Act. (lucif) @ 6.25 μM” value was 1.1 fold and the “hPXR Fold Act. (lucif) @ 25 μM” value amounted to 1.9 fold. In addition, in the data set on MTB H37Rv ATCC 27294, the “MIC90 MABA Rel to RMP” value worked out at 7.0 and the MIC90 was 0.187 µM (≈ 0.212 µg/mL). For the same molecule, in the data set with DPX2 cells, the “DPX2 Viability @ 6.25 μM” value is listed as 107% and the “DPX2 Viability @ 25 μM” value is listed as 102%.
On to `CO[C@H]1/C=C/O[C@@]2(C)Oc3c(C)c(O)c4c(=O)c(c5oc6cc(N7CCN(C(=O)c8cccc(-c9ccccn9)c8)CC7)cc(OCc7ccc(CN8CCOCC8)cc7)c6nc-5c4c3C2=O)NC(=O)/C(C)=C\C=C\[C@H](C)[C@H](O)[C@@H](C)[C@@H](O)[C@@H](C)[C@H](OC(C)=O)[C@@H]1C` [Compound 17r, (7S,9E,11S,12R,13S,14R,15R,16R,17S,18S,19E,21Z)-2,15,17-trihydroxy-11-methoxy-3,7,12,14,16,18,22-heptamethyl-32-{[4-(morpholin-4-ylmethyl)phenyl]methoxy}-6,23,37-trioxo-30-(4-{[3-(pyridin-2-yl)phenyl]carbonyl}piperazin-1-yl)-8,27,38-trioxa-24,34-diazahexacyclo[23.11.1.1^4,7.0^5,36.0^26,35.0^28,33]octatriaconta-1,3,5(36)9,19,21,25,28,30,32,34-undecaen-13-yl acetate], for which the IC50 with VERO cells (ATCC CRL-81) was greater than 10000 nM. Further, the IC50 against WT MTB RNAP was 9.8 nM. Further, in [1], the “hPXR Fold Act. (lucif) @ 6.25 μM” value turned out to be 1 fold and the “hPXR Fold Act. (lucif) @ 25 μM” value is 1 fold. In addition, in the data set on MTB H37Rv ATCC 27294, the “MIC90 MABA Rel to RMP” value amounted to 0.46 and the MIC90 turned out to be 0.023 µM. Besides, in the data set with DPX2 cells, the “DPX2 Viability @ 6.25 μM” value is on record as 105% and the “DPX2 Viability @ 25 μM” value is given as 94%.
Molecule `CO[C@H]1/C=C/O[C@@]2(C)Oc3c(C)c(O)c4c(=O)c(c5oc6cc(N7CCC(CC(=O)O)CC7)cc(N7CCC(CC(=O)O)CC7)c6nc-5c4c3C2=O)NC(=O)/C(C)=C\C=C\[C@H](C)[C@H](O)[C@@H](C)[C@@H](O)[C@@H](C)[C@H](OC(C)=O)[C@@H]1C` [Compound 17v, 2-{1-[(7S,9E,11S,12R,13S,14R,15R,16R,17S,18S,19E,21Z)-13-(acetyloxy)-32-[4-(carboxymethyl)piperidin-1-yl]-2,15,17-trihydroxy-11-methoxy-3,7,12,14,16,18,22-heptamethyl-6,23,37-trioxo-8,27,38-trioxa-24,34-diazahexacyclo-[23.11.1.1^4,7.0^5,36.0^26,35.0^28,33]octatriaconta-1,3,5(36)9,19,21,25,28,30,32,34-undecaen-30-yl]piperidin-4-yl)acetic acid] gave an IC50 in the data set with VERO cells (ATCC CRL-81) greater than 10000 nM. For the same molecule, inhibition against WT MTB RNAP was half-maximal at 27 nM (IC50). In [1], the “hPXR Fold Act. (lucif) @ 6.25 μM” value stood at 1.2 fold and the “hPXR Fold Act. (lucif) @ 25 μM” value is on record as 1.6 fold. In the data set on DPX2 cells, the “DPX2 Viability @ 6.25 μM” value turned out to be 110% and the “DPX2 Viability @ 25 μM” value stood at 100%.
As for `CO[C@H]1/C=C/O[C@@]2(C)Oc3c(C)c(O)c4c(O)c(c(/C=N/N5CCN(C6CCCC6)CC5)c(O)c4c3C2=O)NC(=O)/C(C)=C\C=C\[C@H](C)[C@H](O)[C@@H](C)[C@@H](O)[C@@H](C)[C@H](OC(C)=O)[C@@H]1C` [RFP, rifapentine, reference compound], in the data set with CYP 3A4 (6.25 μM), the “hPXR Fold Act. (CYP 3A4) @ 6.25 μM” value stood at 20.3 fold. For the same molecule, the “hPXR Fold Act. (CYP 3A4) @ 25 μM” value in the data set with CYP 3A4 (25 μM) is on record as 20.5 fold. For the same molecule, the “DPX2 Viability @ 6.25 μM” value in the data set on DPX2 cells (human, 24 h, 6.25 μM) was 104%. Further, the “DPX2 Viability @ 25 μM” value with DPX2 cells (human, 24 h, 25 μM) is 105%.
For `CO[C@H]1/C=C/O[C@@]2(C)Oc3c(C)c(O)c4c(=O)c(c5oc6cc(N7CCN(CC(C)C)CC7)cc(O)c6nc-5c4c3C2=O)NC(=O)/C(C)=C\C=C\[C@H](C)[C@H](O)[C@@H](C)[C@@H](O)[C@@H](C)[C@H](OC(C)=O)[C@@H]1C` [RLZ, rifalazil, reference compound], the “activation of hPXR” value in data set [1] is on record as “no activation”. Further, the hPXR activation result at hPXR was “does not activate”. Also, the “more potent than RMP against MTB H37Rv in vitro” value in the data set on MTB H37Rv was 29 fold. In [2], the half-life is 60 to 100 h. The “MIC90 MABA Rel to RMP” value against MTB H37Rv ATCC 27294 turned out to be 0.04. For the same molecule, the MIC90 in the data set on MTB H37Rv ATCC 27294 (Mycobacterium tuberculosis) is 0.0011 µM (≈ 0.00104 µg/mL). Besides, the “DPX2 Viability @ 6.25 μM” value in the data set on DPX2 cells (6.25 μM, 24 h) worked out at 108%. The “loss of cell viability” value in the data set with DPX2 cells (at 100 pt) is reported as roughly 2 fold. Also, in the data set on DPX2 cells (human), the “DPX2 Viability @ 25 μM” value turned out to be 96%.
In the case of `CO[C@H]1/C=C/O[C@@]2(C)Oc3c(C)c(O)c4c(O)c(c(/C=N/N5CCN(C)CC5)c(O)c4c3C2=O)NC(=O)/C(C)=C\C=C\[C@H](C)[C@H](O)[C@@H](C)[C@@H](O)[C@@H](C)[C@H](OC(C)=O)[C@@H]1C` [RMP, rifampin, reference compound], the “adverse effects noted in the mice” value in data set [3] is listed as “no adverse effects”. In the data set with VERO cells (ATCC CRL-81) (Chlorocebus sabaeus, Vero), this molecule showed an IC50 greater than 100000 nM. Moreover, the “MBC99 Day 7 (CFU Assay) MBC99 Rel to RMP” value in the data set with M. tuberculosis H37Rv (CFU Assay MBC99 relative to rifampin (RMP = 1)) stood at 1. For the same molecule, the MBC in the data set with M. tuberculosis H37Rv (Mycobacterium tuberculosis, 168 h, Day 7, M. tuberculosis H37Rv, ≥99% reduction in colony forming units, read-out: MBC99 Day 7 (CFU Assay) MBC99) was 0.13 µM (≈ 0.107 µg/mL). Moreover, the CFU/Mouse in the data set with M. tuberculosis Erdman (CMC-Tween vehicle) is given as 857; in the data set with M. tuberculosis Erdman (PEG-water vehicle), 8,443. Besides, the “MIC90 MABA Rel to RMP” value against MTB H37Rv ATCC 27294 (MABA MIC90 relative to rifampin (RMP = 1)) turned out to be 1. This molecule also displayed an MIC90 with MTB H37Rv ATCC 27294 (Mycobacterium tuberculosis) of 0.027 µM (≈ 0.0222 µg/mL).
